pIC50: −log10 of the molar value.
Key:
HepG2 = test: cells; details: Homo sapiens, HepG2, 72 h
A549 = test: Antiproliferative activity against human A549 cells after 72 hrs by MTT assay; assay type: functional, cell-based; details: A549, 72 h
[1] = biological target: PI3-kinase p110-alpha/p85-alpha (Homo sapiens, UniProt P42336); test: Inhibition of human PI3K p110alpha/p85alpha by fluorescence-based immunoassay; assay type: protein-complex assay
[2] = biological target: Phosphatidylinositol 3-kinase regulatory subunit beta/Phosphatidylinositol 4,5-bisphosphate 3-kinase catalytic subunit beta isoform (Homo sapiens, UniProt P42338); test: Inhibition of human PI3K p110beta/p85beta by fluorescence-based immunoassay; assay type: protein-complex assay
Sequence of Phosphatidylinositol 3-kinase regulatory subunit beta/Phosphatidylinositol 4,5-bisphosphate 3-kinase catalytic subunit beta isoform (P42338 whole entry, canonical isoform): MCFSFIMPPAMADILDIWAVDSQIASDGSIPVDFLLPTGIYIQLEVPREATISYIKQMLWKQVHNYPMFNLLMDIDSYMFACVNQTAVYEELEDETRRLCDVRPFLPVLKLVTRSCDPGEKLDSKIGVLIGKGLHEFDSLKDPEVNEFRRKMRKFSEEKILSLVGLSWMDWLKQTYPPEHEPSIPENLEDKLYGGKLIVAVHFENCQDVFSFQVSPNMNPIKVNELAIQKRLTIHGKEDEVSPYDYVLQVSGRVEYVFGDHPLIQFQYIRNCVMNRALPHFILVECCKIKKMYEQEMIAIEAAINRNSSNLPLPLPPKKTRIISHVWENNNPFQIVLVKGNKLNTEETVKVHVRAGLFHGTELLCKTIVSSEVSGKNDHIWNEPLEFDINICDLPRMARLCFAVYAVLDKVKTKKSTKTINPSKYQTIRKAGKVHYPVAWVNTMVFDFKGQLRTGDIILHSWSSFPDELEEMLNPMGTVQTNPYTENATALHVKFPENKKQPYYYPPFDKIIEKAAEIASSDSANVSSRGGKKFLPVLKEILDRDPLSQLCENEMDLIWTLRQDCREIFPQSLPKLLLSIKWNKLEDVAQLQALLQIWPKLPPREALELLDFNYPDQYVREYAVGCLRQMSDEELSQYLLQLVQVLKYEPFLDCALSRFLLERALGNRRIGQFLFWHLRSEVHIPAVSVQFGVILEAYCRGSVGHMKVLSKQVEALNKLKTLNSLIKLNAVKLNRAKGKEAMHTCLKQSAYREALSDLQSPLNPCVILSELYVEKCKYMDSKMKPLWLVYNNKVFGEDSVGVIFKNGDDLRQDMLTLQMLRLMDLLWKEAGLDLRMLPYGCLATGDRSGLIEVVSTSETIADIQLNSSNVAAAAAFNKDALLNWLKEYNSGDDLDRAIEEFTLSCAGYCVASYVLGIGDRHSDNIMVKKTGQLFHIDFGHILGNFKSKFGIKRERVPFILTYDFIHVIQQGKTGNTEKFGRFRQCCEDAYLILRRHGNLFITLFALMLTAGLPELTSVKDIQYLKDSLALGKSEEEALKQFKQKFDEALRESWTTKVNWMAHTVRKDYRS
Sequence of Phosphatidylinositol 3-kinase regulatory subunit beta/Phosphatidylinositol 4,5-bisphosphate 3-kinase catalytic subunit beta isoform (O00459 whole entry, further chain, canonical isoform): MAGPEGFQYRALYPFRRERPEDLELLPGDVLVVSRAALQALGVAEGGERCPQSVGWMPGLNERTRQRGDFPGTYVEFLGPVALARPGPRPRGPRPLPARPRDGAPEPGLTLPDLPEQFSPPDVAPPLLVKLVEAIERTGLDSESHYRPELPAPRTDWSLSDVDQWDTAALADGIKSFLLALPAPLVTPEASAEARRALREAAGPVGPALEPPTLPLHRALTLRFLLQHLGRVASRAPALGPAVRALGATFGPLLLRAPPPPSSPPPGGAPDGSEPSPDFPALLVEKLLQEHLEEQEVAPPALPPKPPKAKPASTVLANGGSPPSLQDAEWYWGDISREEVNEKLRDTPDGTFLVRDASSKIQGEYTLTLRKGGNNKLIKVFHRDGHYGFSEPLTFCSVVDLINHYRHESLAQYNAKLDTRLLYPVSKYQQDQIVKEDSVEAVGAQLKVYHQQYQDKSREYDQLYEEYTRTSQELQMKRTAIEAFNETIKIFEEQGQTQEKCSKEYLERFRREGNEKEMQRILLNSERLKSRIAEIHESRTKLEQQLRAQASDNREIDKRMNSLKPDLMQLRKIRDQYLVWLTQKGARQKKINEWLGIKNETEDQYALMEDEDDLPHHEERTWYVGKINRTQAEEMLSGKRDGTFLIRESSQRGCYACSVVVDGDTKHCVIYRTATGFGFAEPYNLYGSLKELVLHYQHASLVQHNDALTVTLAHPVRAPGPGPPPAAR

[3] = biological target: T1, Phosphatidylinositol 4,5-bisphosphate 3-kinase catalytic subunit delta isoform (Homo sapiens, UniProt O00329); test: Inhibition of human PI3Kdelta by fluorescence-based immunoassay
T1 sequence (O00329 whole entry): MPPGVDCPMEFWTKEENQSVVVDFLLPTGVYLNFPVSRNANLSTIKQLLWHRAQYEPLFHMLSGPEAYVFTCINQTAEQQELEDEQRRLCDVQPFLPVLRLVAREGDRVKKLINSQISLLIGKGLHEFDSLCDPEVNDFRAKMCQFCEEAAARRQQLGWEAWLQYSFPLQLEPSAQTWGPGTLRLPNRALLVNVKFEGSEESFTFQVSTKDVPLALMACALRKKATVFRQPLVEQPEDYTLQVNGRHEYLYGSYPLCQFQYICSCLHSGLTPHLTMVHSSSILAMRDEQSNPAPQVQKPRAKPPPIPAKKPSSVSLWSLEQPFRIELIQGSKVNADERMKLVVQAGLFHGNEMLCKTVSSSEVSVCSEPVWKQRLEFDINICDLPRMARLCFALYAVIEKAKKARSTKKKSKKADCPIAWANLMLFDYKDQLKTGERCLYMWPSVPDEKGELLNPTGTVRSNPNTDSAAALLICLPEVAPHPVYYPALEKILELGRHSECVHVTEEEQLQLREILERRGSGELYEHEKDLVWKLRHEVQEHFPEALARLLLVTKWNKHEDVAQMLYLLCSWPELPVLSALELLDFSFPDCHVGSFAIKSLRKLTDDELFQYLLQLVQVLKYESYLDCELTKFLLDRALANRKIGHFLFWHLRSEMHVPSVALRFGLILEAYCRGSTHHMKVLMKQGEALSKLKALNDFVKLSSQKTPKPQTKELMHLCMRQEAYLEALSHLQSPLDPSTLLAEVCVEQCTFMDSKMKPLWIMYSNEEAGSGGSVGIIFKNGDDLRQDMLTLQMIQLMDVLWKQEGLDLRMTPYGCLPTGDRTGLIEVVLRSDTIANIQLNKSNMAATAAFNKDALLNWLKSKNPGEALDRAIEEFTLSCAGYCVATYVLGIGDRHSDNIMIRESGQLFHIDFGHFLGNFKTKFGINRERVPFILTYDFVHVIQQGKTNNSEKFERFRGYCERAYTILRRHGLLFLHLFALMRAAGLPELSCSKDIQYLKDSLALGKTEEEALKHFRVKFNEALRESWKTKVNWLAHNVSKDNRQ

[4] = biological target: Phosphatidylinositol 4,5-bisphosphate 3-kinase catalytic subunit gamma isoform (Homo sapiens, UniProt P48736); test: Inhibition of human PI3K 110gamma by fluorescence-based immunoassay
Sequence of Phosphatidylinositol 4,5-bisphosphate 3-kinase catalytic subunit gamma isoform (P48736 whole entry, canonical isoform): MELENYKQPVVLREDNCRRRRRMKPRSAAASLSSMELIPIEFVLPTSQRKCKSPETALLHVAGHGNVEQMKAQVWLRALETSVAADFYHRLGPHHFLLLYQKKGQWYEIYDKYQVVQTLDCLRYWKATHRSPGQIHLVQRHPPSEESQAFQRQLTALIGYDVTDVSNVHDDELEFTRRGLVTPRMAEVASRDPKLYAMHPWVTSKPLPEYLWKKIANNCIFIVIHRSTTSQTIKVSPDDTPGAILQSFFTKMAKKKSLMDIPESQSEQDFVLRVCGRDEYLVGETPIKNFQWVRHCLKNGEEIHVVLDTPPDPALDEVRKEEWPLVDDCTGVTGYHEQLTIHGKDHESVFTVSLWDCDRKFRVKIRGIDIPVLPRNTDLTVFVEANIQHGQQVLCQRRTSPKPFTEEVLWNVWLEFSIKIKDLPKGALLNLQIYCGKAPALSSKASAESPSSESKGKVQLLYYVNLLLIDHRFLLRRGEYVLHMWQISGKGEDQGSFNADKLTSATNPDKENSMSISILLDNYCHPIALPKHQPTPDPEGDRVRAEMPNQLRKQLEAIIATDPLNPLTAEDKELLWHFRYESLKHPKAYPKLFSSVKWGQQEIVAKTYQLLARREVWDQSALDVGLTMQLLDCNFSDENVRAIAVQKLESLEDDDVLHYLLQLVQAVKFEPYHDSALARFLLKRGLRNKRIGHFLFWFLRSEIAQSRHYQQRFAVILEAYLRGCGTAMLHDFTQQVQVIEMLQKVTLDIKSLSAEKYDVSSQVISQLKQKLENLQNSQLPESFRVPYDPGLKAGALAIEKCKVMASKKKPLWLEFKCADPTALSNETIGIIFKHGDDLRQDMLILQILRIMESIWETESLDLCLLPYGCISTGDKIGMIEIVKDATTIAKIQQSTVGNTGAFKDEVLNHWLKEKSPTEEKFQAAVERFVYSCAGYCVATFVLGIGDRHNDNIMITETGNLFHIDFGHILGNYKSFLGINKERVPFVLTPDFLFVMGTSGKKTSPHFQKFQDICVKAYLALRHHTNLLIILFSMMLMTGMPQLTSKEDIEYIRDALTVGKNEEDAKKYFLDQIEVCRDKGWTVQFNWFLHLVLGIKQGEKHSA

HeLa = test: Antiproliferative activity against human HeLa cells after 72 hrs by MTT assay; assay type: functional, cell-based
MCF7 = test: cells; details: Homo sapiens, MCF7, 72 h
[5] = Cytotoxicity against macrophages after 72 hrs by MTT assay; assay type: cell-based, Macrophage

Sequence of PI3-kinase p110-alpha/p85-alpha (P27986 whole entry, canonical isoform): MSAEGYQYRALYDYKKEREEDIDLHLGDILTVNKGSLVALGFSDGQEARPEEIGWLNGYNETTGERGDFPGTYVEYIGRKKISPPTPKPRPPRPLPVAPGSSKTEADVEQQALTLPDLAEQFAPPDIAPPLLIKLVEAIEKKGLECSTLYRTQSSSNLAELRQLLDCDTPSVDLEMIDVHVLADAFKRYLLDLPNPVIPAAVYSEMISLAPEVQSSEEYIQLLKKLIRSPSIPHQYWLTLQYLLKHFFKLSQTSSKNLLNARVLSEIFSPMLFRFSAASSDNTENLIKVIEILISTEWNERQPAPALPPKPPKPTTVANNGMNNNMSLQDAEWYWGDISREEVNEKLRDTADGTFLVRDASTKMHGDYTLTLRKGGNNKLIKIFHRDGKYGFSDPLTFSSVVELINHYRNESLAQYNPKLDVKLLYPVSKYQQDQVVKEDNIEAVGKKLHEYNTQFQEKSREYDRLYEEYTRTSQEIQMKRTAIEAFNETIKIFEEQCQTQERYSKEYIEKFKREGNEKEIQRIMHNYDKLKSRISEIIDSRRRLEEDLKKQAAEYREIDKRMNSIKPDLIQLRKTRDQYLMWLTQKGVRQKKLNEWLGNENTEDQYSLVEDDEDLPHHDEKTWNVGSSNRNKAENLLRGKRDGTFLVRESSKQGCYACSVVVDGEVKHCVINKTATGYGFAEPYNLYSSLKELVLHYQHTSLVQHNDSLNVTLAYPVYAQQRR
Sequence of PI3-kinase p110-alpha/p85-alpha (P42336 whole entry, canonical isoform): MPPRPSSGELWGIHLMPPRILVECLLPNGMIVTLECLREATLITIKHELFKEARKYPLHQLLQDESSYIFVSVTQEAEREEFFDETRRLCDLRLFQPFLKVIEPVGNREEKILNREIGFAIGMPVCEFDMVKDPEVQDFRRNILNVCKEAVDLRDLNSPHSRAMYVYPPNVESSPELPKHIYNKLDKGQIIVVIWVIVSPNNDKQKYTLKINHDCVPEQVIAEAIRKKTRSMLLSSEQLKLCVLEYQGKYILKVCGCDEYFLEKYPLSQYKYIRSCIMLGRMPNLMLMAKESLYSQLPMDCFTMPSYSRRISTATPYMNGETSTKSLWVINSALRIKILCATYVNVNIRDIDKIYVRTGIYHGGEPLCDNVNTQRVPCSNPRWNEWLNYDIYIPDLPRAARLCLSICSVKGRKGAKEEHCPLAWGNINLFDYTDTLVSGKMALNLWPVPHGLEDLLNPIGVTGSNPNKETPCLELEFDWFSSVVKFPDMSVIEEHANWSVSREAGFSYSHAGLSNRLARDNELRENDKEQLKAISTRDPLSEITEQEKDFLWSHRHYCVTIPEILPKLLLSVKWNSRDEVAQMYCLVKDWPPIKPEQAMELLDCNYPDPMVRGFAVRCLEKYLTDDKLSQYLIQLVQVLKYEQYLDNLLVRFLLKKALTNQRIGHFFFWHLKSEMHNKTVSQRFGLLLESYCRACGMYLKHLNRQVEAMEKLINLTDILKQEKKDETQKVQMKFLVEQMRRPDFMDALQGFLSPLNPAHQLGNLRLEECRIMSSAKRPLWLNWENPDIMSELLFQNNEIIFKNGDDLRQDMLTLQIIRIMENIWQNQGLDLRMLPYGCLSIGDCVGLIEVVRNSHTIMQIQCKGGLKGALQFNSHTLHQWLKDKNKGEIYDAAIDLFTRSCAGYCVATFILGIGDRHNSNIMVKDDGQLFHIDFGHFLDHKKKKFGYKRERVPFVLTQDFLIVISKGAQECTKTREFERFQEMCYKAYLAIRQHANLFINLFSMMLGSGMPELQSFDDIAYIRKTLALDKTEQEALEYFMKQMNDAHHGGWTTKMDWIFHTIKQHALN

Structure (SMILES) | pIC50 (HepG2) | pIC50 (A549) | pIC50 [1] | pIC50 [2] | pIC50 [3] | pIC50 [4] | pIC50 (HeLa) | pIC50 (MCF7) | CC50 at 72 h [5]
CCn1cc(C(=O)O)c(=O)c2cc(F)c(N3CCN(C(=O)c4ccc(OC)nc4)CC3)cc21 | 3.37 | < 3.00 | < 6.00 | < 6.00 | < 6.00 | 6.55 | 3.81 | 3.45 | –
O=C(O)c1cn(C2CC2)c2cc(N3CCN(C(=O)c4cc(Cl)ccc4O)CC3)c(F)cc2c1=O | 4.30 | 3.94 | 6.02 | < 6.00 | 6.26 | 6.76 | 4.19 | 4.05 | 269 µM
O=C(O)c1cn(C2CC2)c2cc(N3CCN(C(=O)c4cc([N+](=O)[O-])ccc4O)CC3)c(F)cc2c1=O | 3.91 | 4.06 | 6.23 | < 6.00 | 6.14 | 6.73 | 4.59 | 4.32 | 297 µM
CCn1cc(C(=O)O)c(=O)c2cc(F)c(N3CCN(C(=O)c4cccnc4Cl)CC3)cc21 | < 3.00 | 3.55 | < 6.00 | < 6.00 | < 6.00 | 6.59 | 4.05 | 3.67 | –
O=C(O)c1cn(C2CC2)c2cc(N3CCN(C(=O)c4cccnc4Cl)CC3)c(F)cc2c1=O | 3.75 | < 3.00 | < 6.00 | < 6.00 | < 6.00 | 6.58 | 3.55 | 3.82 | –
CCn1cc(C(=O)O)c(=O)c2cc(F)c(N3CCN(C(=O)c4c(C)cccc4O)CC3)cc21 | 4.56 | 3.92 | 6.04 | < 6.00 | 6.17 | 6.76 | 4.27 | 3.97 | 343 µM
O=C(O)c1cn(C2CC2)c2cc(N3CCN(C(=O)c4cc(Br)ccc4O)CC3)c(F)cc2c1=O | 4.44 | 4.11 | 6.05 | < 6.00 | 6.17 | 6.77 | 4.71 | 4.66 | 289 µM
COc1ccc(C(=O)N2CCN(c3cc4c(cc3F)c(=O)c(C(=O)O)cn4C3CC3)CC2)cn1 | 4.18 | 3.17 | < 6.00 | < 6.00 | < 6.00 | 6.55 | 3.46 | 4.37 | –

Now those with a higher pIC50 (A549), led by results:

pIC50 (HepG2) | pIC50 (A549) | pIC50 [1] | pIC50 [2] | pIC50 [3] | pIC50 [4] | pIC50 (HeLa) | pIC50 (MCF7) | Structure (SMILES) | CC50 at 72 h [5]
5.53 | 5.81 | 6.15 | < 6.00 | 6.51 | 7.01 | 6.02 | 5.92 | CCn1cc(C(=O)O)c(=O)c2cc(F)c(N3CCN(C(=O)c4cc(Cl)ccc4O)CC3)cc21 | 273 µM
6.33 | 5.97 | 6.16 | < 6.00 | 6.31 | 6.95 | 5.68 | 5.42 | CCn1cc(C(=O)O)c(=O)c2cc(F)c(N3CCN(C(=O)c4cc(OC)ccc4O)CC3)cc21 | 279 µM
5.49 | 6.00 | 6.16 | < 6.00 | 6.32 | 6.95 | 6.29 | 5.15 | CCn1cc(C(=O)O)c(=O)c2cc(F)c(N3CCN(C(=O)c4cc(Br)ccc4O)CC3)cc21 | 266 µM
5.59 | 6.07 | 6.19 | < 6.00 | 6.46 | 7.05 | 6.80 | 6.48 | COc1ccc(C(=O)N2CCN(c3cc4c(cc3F)c(=O)c(C(=O)O)cn4C3CC3)CC2)c(O)c1 | 311 µM
6.54 | 6.17 | 6.45 | < 6.00 | 6.57 | 7.25 | 7.22 | 6.96 | O=C(O)c1cn(C2CC2)c2cc(N3CCN(C(=O)c4cc([N+](=O)[O-])cc([N+](=O)[O-])c4O)CC3)c(F)cc2c1=O | 365 µM
– | 6.48 | – | – | – | – | 6.82 | 6.11 | CC[C@H](Nc1ncnc2[nH]cnc12)c1nc2cccc(F)c2c(=O)n1-c1ccccc1 [IDELALISIB] | –

Reference: ChEMBL document CHEMBL3769326, “Discovery of fluoroquinolone derivatives as potent, selective inhibitors of PI3K” (Medchemcomm, 2015)
